Test results published in patent US9732075B2, “Benzimidazole-proline derivatives” (IDORSIA PHARMACEUTICALS LTD, priority 2012, dated 2017).

Legend:
human orexin-2 receptor = human orexin-2 receptor (Homo sapiens (Human), UniProt O43614); assay: In vitro assay: intracellular calcium measurements (FLIPR), antagonistic activity; type: cell-based; conditions: CHO cells expressing human orexin-2 receptor, orexin-A agonist, geometric mean, read-out: IC50 Ox2
Method: (§1) In Vitro Assay: Intracellular Calcium Measurements:
(§2) Chinese hamster ovary (CHO) cells expressing the human orexin-1 receptor and the human orexin-2 receptor, respectively, are grown in culture medium (Ham F-12 with L-Glutamine) containing 300 μg/ml G418, 100 U/ml penicillin, 100 μg/ml streptomycin and 10% heat inactivated fetal calf serum (FCS). The cells are seeded at 20,000 cells/well into 384-well black clear bottom sterile plates (Greiner). The seeded plates are incubated overnight at 37° C. in 5% CO2.
(§3) Human orexin-A as an agonist is prepared as 1 mM stock solution in MeOH: water (1:1), diluted in HBSS containing 0.1% bovine serum albumin (BSA), NaHCO3: 0.375 g/l and 20 mM HEPES for use in the assay at a final concentration of 3 nM.
(§4) Antagonists are prepared as 10 mM stock solution in DMSO, then diluted in 384-well plates using DMSO followed by a transfer of the dilutions into in HBSS containing 0.1% bovine serum albumin (BSA), NaHCO3: 0.375 g/l and 20 mM HEPES. On the day of the assay, 50 μl of staining buffer (HBSS containing 1% FCS, 20 mM HEPES, NaHCO3: 0.375 g/l, 5 mM probenecid (Sigma) and […] of the fluorescent calcium indicator fluo-4 AM (1 mM stock solution in DMSO, containing 10% pluronic) is added to each well. The 384-well cell-plates are incubated for 50 min at 37° C. in 5% CO2 followed by equilibration at RT for 30 min before measurement.
(§5) Within the Fluorescent Imaging Plate Reader (FLIPR Tetra, Molecular Devices), antagonists are added to the plate in a volume of 10 μl/well, incubated for 120 min and finally 10 μl/well of agonist is added. Fluorescence is measured for each well at 1 second intervals, and the height of each fluorescence peak is compared to the height of the fluorescence peak induced by an approximate EC70 (for example 5 nM) of orexin-A with vehicle in place of antagonist. The IC50 value (the concentration of compound needed to inhibit 50% of the agonistic response) is determined and may be normalized using the obtained IC50 value of a on-plate reference compound. Optimized conditions are achieved by adjustment of pipetting speed and cell splitting regime. The calculated IC50 values may fluctuate depending on the daily cellular assay performance. Fluctuations of this kind are known to those skilled in the art. Average IC50 values from several measurements are given as geometric mean values.

human orexin-1 receptor = human orexin-1 receptor (Homo sapiens (Human), UniProt O43613); assay: as above; type: cell-based; conditions: CHO cells expressing human orexin-1 receptor, orexin-A agonist, geometric mean, read-out: IC50 Ox1
Method: as §1, §2, §3, §4, §5

Sequence of human orexin-2 receptor (O43614 whole entry): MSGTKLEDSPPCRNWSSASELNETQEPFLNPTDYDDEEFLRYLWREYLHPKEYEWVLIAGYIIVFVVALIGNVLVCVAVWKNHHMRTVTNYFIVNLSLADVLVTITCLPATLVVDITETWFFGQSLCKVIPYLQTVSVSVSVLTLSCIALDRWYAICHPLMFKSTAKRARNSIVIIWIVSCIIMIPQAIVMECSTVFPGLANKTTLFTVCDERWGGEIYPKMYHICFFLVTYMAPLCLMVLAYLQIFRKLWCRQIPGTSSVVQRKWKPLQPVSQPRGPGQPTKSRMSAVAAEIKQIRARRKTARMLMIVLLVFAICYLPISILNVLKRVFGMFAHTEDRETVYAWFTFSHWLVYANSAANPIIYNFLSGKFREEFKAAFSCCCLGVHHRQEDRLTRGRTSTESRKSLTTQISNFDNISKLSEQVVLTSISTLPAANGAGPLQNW
Sequence of human orexin-1 receptor (O43613 whole entry): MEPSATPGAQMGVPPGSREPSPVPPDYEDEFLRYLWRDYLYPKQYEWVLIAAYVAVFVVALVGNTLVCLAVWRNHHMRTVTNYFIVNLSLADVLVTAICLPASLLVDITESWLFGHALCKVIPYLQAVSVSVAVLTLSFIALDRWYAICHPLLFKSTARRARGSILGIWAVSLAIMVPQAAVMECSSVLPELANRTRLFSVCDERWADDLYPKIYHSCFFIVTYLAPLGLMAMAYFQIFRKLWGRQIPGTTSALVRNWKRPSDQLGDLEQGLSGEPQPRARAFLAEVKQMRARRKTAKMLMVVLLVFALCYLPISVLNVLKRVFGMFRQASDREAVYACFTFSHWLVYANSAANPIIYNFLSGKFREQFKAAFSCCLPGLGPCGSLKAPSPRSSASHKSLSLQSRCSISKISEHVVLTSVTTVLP

Row | SMILES | IC50 (human orexin-2 receptor) [nM] | IC50 (human orexin-1 receptor) [nM]
1 | Cc1nc(C(=O)N2CCC[C@H]2c2nc3cc(Cl)c(C)cc3[nH]2)c(-c2ccccc2)s1 [Ex. 1.143] | 16 | 14
2 | COc1ccc2nc([C@@H]3CCCN3C(=O)c3cc(F)ccc3-n3nccn3)[nH]c2c1 [Ex. 1.156] | 29 | 1810
3 | CSc1ccc2nc([C@@H]3CCCN3C(=O)c3cnc(C)nc3-c3ccc(F)cc3)[nH]c2c1 [Ex. 1.50] | 107 | 394
4 | CO[C@H]1C[C@@H](c2nc3c(C)c(Cl)ccc3[nH]2)N(C(=O)c2nc(C)sc2-c2cccc(Cl)c2)C1 [Ex. 3.8] | 12 | 22
5 | COc1ccc2nc([C@@H]3CCCN3C(=O)c3ccccc3-n3nccn3)[nH]c2c1 [Ex. 1.27] | 35 | 1040
6 | CO[C@@H]1C[C@@H](c2nc3c(C)c(Cl)ccc3[nH]2)N(C(=O)c2cc(C)ccc2-n2nccn2)C1 [Ex. 3.2] | 6 | 13
7 | CO[C@@H]1C[C@@H](c2nc3ccc(Cl)c(C)c3[nH]2)N(C(=O)c2nc(C)sc2-c2ccc(Cl)cc2)C1 [Ex. 3.35] | 4 | 3
8 | Cc1nc(C(=O)N2C[C@@H](F)C[C@H]2c2nc3c(C)c(Cl)ccc3[nH]2)c(-c2ccccc2)s1 [Ex. 2.7] | 42 | 66
9 | Cc1nc(C(=O)N2C[C@H](F)C[C@H]2c2nc3c(C)c(Cl)ccc3[nH]2)c(-c2cccc(Cl)c2)s1 [Ex. 2.10] | 8 | 5
10 | Cc1nc(C(=O)N2CCCC2c2nc3c(Br)cccc3[nH]2)c(-c2ccccc2)s1 (stereo not shown) [Ex. 1.130] | 75 | 113
11 | Cc1nc(C(=O)N2CCCC2c2nc3cc(C(C)(C)C)ccc3[nH]2)c(-c2ccccc2)s1 (stereo not shown) [Ex. 1.124] | 42 | 119
12 | COc1ccc2nc([C@@H]3CCCN3C(=O)c3cnc(C)nc3-c3ccc(Cl)c(Cl)c3)[nH]c2c1 [Ex. 1.28] | 110 | 114
13 | CO[C@H]1CN(C(=O)c2cc(F)ccc2-n2nccn2)C(C)(c2nc3c(C)c(Cl)ccc3[nH]2)C1 (stereo partly shown) [Ex. 3.43] | 13 | 10
14 | CSc1ccc2nc([C@@H]3CCCN3C(=O)c3cnc(C)nc3-c3ccccc3)[nH]c2c1 [Ex. 1.57] | 22 | 76
15 | CSc1cccc2nc([C@@H]3CCCN3C(=O)c3nc(C)sc3-c3cccc(Cl)c3)[nH]c12 [Ex. 1.13] | 24 | 15
16 | Cc1nc(C(=O)N2CCCC2c2nc3cc(Cl)c(Cl)cc3[nH]2)c(-c2cccc(Cl)c2)s1 (stereo not shown) [Ex. 1.92] | 69 | 23
17 | Cc1nc(C(=O)N2C[C@@H](F)C[C@H]2c2nc3c(C)cccc3[nH]2)c(-c2ccccc2)s1 [Ex. 2.2] | 317 | 1300

Now from value to compound:

Row | IC50 (human orexin-2 receptor) [nM] | IC50 (human orexin-1 receptor) [nM] | SMILES
18 | 3 | 51 | C=C1C[C@@H](c2nc3cc(C(C)(C)C)ccc3[nH]2)N(C(=O)c2cc(Cl)ccc2-n2nccn2)C1 [Ex. 6.161]
19 | 32 | 4 | Cc1ccc(C(=O)N2CC[C@H](C)[C@H]2c2nc3cc(C)c(C)cc3[nH]2)c(-n2nccn2)c1 [Ex. 4.82]
20 | 0.8 | 3 | C=C1C[C@@H](c2nc3ccc(Cl)c(C)c3[nH]2)N(C(=O)c2nc(C)sc2-c2ccc(Cl)c(Cl)c2)C1 [Ex. 6.126]
21 | 479 | 344 | C=C1C[C@@H](c2nc3cc(C(C)(C)C)ccc3[nH]2)N(C(=O)c2cc(OC(F)(F)F)ccc2-n2nccn2)C1 [Ex. 6.169]
22 | 1340 | 2 | Cc1cccc(-c2sc(C)nc2C(=O)N2CC[C@H](C)[C@H]2c2nc3cc(C(F)(F)F)ccc3[nH]2)c1 [Ex. 4.138]
23 | 556 | 385 | Cc1ccc(-c2ccc(F)cc2C)c(C(=O)N2CCC[C@@]2(C)c2nc3cc(C(F)(F)F)ccc3[nH]2)c1 [Ex. 5.181]
24 | 203 | 24 | Cc1ccc(-c2ccc(C#N)cc2)c(C(=O)N2CCC[C@@]2(C)c2nc3cc(C(F)(F)F)ccc3[nH]2)c1 [Ex. 5.193]
25 | 2060 | 20 | Cc1ccc(-c2nc(C(=O)N3CCC[C@@]3(C)c3nc4c(C)c(Cl)ccc4[nH]3)c(-c3ccc(F)cc3)s2)cc1 [Ex. 5.232]
26 | 871 | 21 | Cc1nc(C(=O)N2CC[C@H](C)[C@H]2c2nc3c(Cl)cccc3[nH]2)c(-c2ccc(Br)cc2)s1 [Ex. 4.123]
27 | 879 | 525 | Cc1ccc(-c2ccc(OC(F)(F)F)cc2)c(C(=O)N2CCC[C@@]2(C)c2nc3cc(C(F)(F)F)c(Cl)cc3[nH]2)c1 [Ex. 5.158]
28 | 190 | 46 | COCCn1c([C@]2(C)CCCN2C(=O)c2cc(C)ccc2-c2cccc(OC)c2)nc2cc(C)c(C)cc21 [Ex. 7.53]
29 | 3 | 34 | C=C1C[C@@H](c2nc3cc(Cl)c(C)cc3[nH]2)N(C(=O)c2cc(C)ccc2-n2nccn2)C1 [Ex. 6.65]
30 | 10 | 75 | C=C1C[C@@H](c2nc3ccc(Cl)c(C)c3[nH]2)N(C(=O)c2cc(C)ccc2-n2cccn2)C1 [Ex. 6.134]
31 | 9 | 883 | C=C1C[C@@H](c2nc3ccc(OC)cc3[nH]2)N(C(=O)c2c(-n3nccn3)ccc(C)c2F)C1 [Ex. 6.141]
32 | 308 | 2 | Cc1cccc(-c2sc(C)nc2C(=O)N2CC[C@H](C)[C@H]2c2nc3c(C(F)(F)F)cccc3[nH]2)c1 [Ex. 4.158]
33 | 12 | 87 | C=C1C[C@@H](c2nc3cc(OC)ccc3[nH]2)N(C(=O)c2ccccc2-c2cccc(C)c2)C1 [Ex. 6.14]
34 | 12 | 3 | Cc1ccc(-c2ccccc2)c(C(=O)N2CCC[C@@]2(C)c2nc3c(C)c(Cl)ccc3[nH]2)c1 [Ex. 5.223]
35 | 155 | 12 | Cc1ccc(-n2nccn2)c(C(=O)N2CC[C@H](C)[C@H]2c2nc3cc(C)c(C)cc3[nH]2)c1 [Ex. 4.30]
36 | 70 | 23 | COCCn1c([C@]2(C)CCCN2C(=O)c2cc(C)ccc2-c2cccc(C)c2)nc2cc(C)c(C)cc21 [Ex. 7.29]
37 | 249 | 98 | Cc1c(Cl)ccc2nc([C@]3(C)CCCN3C(=O)c3cc(F)ccc3-c3cccnc3)[nH]c12 [Ex. 5.220]
38 | 6 | 5 | COc1cccc(-c2sc(C)nc2C(=O)N2CCC[C@@]2(C)c2nc3c(C)c(C)c(Br)cc3[nH]2)c1 [Ex. 5.275]
39 | 2140 | 33 | C[C@@]1(c2nc3cc(Cl)c(C(F)(F)F)cc3[nH]2)CCCN1C(=O)c1nc(-c2cccc(F)c2)sc1-c1ccc(F)cc1 [Ex. 5.290]
40 | 17 | 155 | C=C1C[C@@H](c2nc3cc(OC)ccc3[nH]2)N(C(=O)c2ccccc2-n2nccn2)C1 [Ex. 6.13]
41 | 55 | 57 | COc1cc(C(=O)N2CCC[C@@]2(C)c2nc3cc(C)c(C)cc3[nH]2)c(-n2nccn2)cc1OC [Ex. 5.57]
42 | 533 | 28 | Cc1nc(C(=O)N2CCC[C@@]2(C)c2nc3cc(OC(F)(F)F)ccc3[nH]2)c(-c2cc(F)cc(F)c2)s1 [Ex. 5.246]
43 | 62 | 767 | C=C1C[C@@H](c2nc3c(OC)ccc(OC)c3[nH]2)N(C(=O)c2cc(C)ccc2-n2nccn2)C1 [Ex. 6.68]
44 | 2320 | 21 | COc1cc2nc([C@@H]3[C@@H](C)CCN3C(=O)c3nc(C)sc3-c3ccc(F)cc3)[nH]c2cc1OC [Ex. 4.54]
